PubChem BioAssay (NCI)
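Assay format: 96-well plates, 48-hour exposure. The concentration for full growth arrest is given as TGI.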 Where a SMILES comes first, the peptide text is derived from it. The star is where a group is joined. OSu = O=C1CCC(=O)N1O*

Tests used:
Assay in all cases: inhibition of tumour cell growth, NCI panel, 48 h
MDA-N = tested on: MDA-N
CCRF-CEM leukemia = tested on: CCRF-CEM leukemia
HT29 colon = tested on: HT29 colon
T-47D breast = tested on: T-47D breast
KM12 colon = tested on: KM12 colon
OVCAR-3 ovarian = tested on: OVCAR-3 ovarian
SK-MEL-5 melanoma = tested on: SK-MEL-5 melanoma
HS 578T breast = tested on: HS 578T breast
M14 melanoma = tested on: M14 melanoma
NCI-H226 lung = tested on: NCI-H226 lung
HCT-116 colon = tested on: HCT-116 colon
SR leukemia = tested on: SR leukemia

Row | Structure (SMILES) | TGI (MDA-N) [µM] | TGI (CCRF-CEM leukemia) [µM] | TGI (HT29 colon) [µM] | TGI (T-47D breast) [µM] | TGI (KM12 colon) [µM] | TGI (OVCAR-3 ovarian) [µM] | TGI (SK-MEL-5 melanoma) [µM] | TGI (HS 578T breast) [µM] | TGI (M14 melanoma) [µM] | TGI (NCI-H226 lung) [µM] | TGI (HCT-116 colon) [µM] | TGI (SR leukemia) [µM]
1 | COc1ccc2oc3c(C)cc4c(OC)nnc(OC)c4c3c2c1 | > 100 | > 100 | > 100 | > 100 | > 100 | > 100 | > 100 | > 100 | > 100 | > 100 | 6.55 | 
2 | CCOC(=O)/C(C#N)=C/c1coc2cc(C)cc(C)c2c1=O | > 100 | > 100 | > 100 | > 100 | > 100 | > 100 | > 100 | > 100 | > 100 | > 100 | > 100 | > 100
3 | N#C/C(N)=C(\C#N)NC=NCCO | > 100 | > 100 | > 100 | > 100 | > 100 | > 100 | > 100 | > 100 | > 100 | > 100 | > 100 | > 100
4 | CCOC(=O)c1cn2c(n1)sc1cc(F)ccc12 | > 100 | > 100 | > 100 | > 100 | > 100 | > 100 | > 100 | > 100 | > 100 | > 100 | > 100 | > 100
5 | CC(N)/C(N)=N/O (configuration not stated) | > 100 | > 100 | > 100 | > 100 | > 100 | > 100 | > 100 | > 100 | > 100 | > 100 | > 100 | > 100
6 | CCCCCCc1cc2cc(-c3cn4ccsc4n3)c(=O)oc2cc1O | > 22.8 | > 100 | > 100 | > 100 | > 100 | > 100 | > 44.9 | > 77 |  | > 100 | > 100 | > 100
7 | NCCCCC(NC(=O)C(N)Cc1ccc(O)cc1)C(=O)NC(CCCCN)C(=O)NC(CCCCN)C(=O)ON1C(=O)CCC1=O (configuration not stated) (H-YKKK-OSu; configuration not given here) | > 100 |  | > 100 | > 100 | > 100 |  | > 100 | > 100 | > 100 | > 100 | > 100 | > 100
8 | NC(Cc1ccccc1)C(=O)NC(Cc1ccccc1)NC(=O)C(Cc1c[nH]c2ccccc12)C(=O)O (configuration not stated) | > 100 | > 100 | > 100 | > 100 | > 100 | > 100 | > 100 | > 100 | > 100 | > 100 | > 100 | > 100
9 | O=c1[nH]c(=O)n(C2COC(CO)C2O)cc1F (configuration not stated) | > 100 | > 100 | > 100 | > 100 | > 100 | > 100 | > 100 | > 100 | > 100 | > 100 | > 100 | > 100
10 | O=C(O)C1C2c3ccccc3C(c3ccccc32)C1C(=O)NCC1CC1 (configuration not stated) | > 100 | 96.8 | > 100 | > 100 | > 100 | > 100 | > 100 | > 100 | > 100 | > 100 | > 100 | > 100
11 | Cc1ccc(S[C@@H](C)[C@@](O)(CF)CN(Cc2ccccc2)C(=O)C(F)(F)F)cc1 | 62.7 | > 100 | 27.6 | 68.5 |  | 27 |  | 61.7 | 31.7 |  | 27.3 | 
12 | O=C(O)Cc1ccc([N+](=O)[O-])cc1[N+](=O)[O-] | > 100 | > 100 | > 100 | > 100 | > 100 | > 100 | > 100 | > 100 | > 100 | > 100 | > 100 | 
13 | CC(=O)CC1CCC(=O)/C=C/C(=O)OC(CC(C)=O)CCC(=O)/C=C/C(=O)O1 (configuration not stated) | 24 | > 100 | 31.6 | 6.79 | 42.8 | 17.1 | 27.3 | 69.9 | 10.6 | 61.3 | 9.08 | > 100
14 | Cc1cc(OC(=O)Nc2cccc3ccccc23)c(C(C)C)cc1C(=S)Nc1ccccc1 | 33.3 | 27.5 | 35.8 | 53.6 | 36.4 | 33.5 | 27.9 | 55.2 | 37 |  | 32.4 | 33.5
15 | CCOC(=O)CCC(NC(=O)C(N)Cc1ccc(N(CCCl)CCCl)cc1)C(=O)OCC (configuration not stated) | 4.98 | 4.29 | 3.47 | 3.84 | 3.43 | 1.68 | 2.93 | 4.93 | 1.39 | 20.7 | 3.54 | 14
16 | CCOC(=O)C(=[N+]=[N-])C(=O)CN1C(=O)c2ccccc2C1=O | > 100 |  | > 100 | > 100 |  | > 100 | > 100 | > 100 | > 100 |  | > 100 | 
17 | CSC(=O)c1sc(SC)[n+](-c2ccccc2)c1O | 37.1 | 38.1 | 46.5 | 29.5 |  | 26.2 | 55.7 | > 100 | 29.2 | 52.9 | 32.6 | > 100
18 | COc1ccc(NC(=S)c2ccc(CN3CCCCC3)s2)cc1 | 36.7 | 34.5 | 18.3 | 60.7 | 35.7 | > 100 | 28 | 43.8 | 35.4 |  | 35.6 | 51.8
19 | Cc1ccc(S(=O)(=O)N2C3C=CC(C3)[C@@H]2C(Cl)(Cl)Cl)cc1 (some centres not stated) | 86.9 | 71.2 | 31.8 | > 100 | 85.5 | 25.3 | 38.3 | 41.3 | 39.1 | 60.9 | 24.7 | 43.2
20 | COC(=O)[C@]1(C)CCC[C@@]2(C)C1CC[C@@]13C=C(C(C)C)[C@@H](CC1=O)CC23 (some centres not stated) | > 100 | 42.4 | 40.5 | > 100 | > 100 | 45.9 | 33 | 43.9 | > 100 | 39 | 42 | 30.9

Row | Structure (SMILES) | TGI (MDA-N) [µM] | TGI (CCRF-CEM leukemia) [µM] | TGI (HT29 colon) [µM] | TGI (T-47D breast) [µM] | TGI (KM12 colon) [µM] | TGI (OVCAR-3 ovarian) [µM] | TGI (SK-MEL-5 melanoma) [µM] | TGI (HS 578T breast) [µM] | TGI (M14 melanoma) [µM] | TGI (NCI-H226 lung) [µM] | TGI (HCT-116 colon) [µM] | TGI (SR leukemia) [µM]
21 | Cc1ccc2nc(-c3ccccc3)cc(=O)n2c1 | > 100 | > 100 | > 100 | > 100 | > 100 | > 100 | > 100 | > 100 | > 100 | > 100 | > 100 | > 100
22 | C[C@]12[C@@H]3CC[C@H]1[C@@H](O)C(=O)N2CC3 | > 100 | > 100 | > 100 | > 100 | > 100 |  | > 100 | > 100 | > 100 |  | > 100 | > 100
23 | COc1ccccc1CC(=O)C(O)(C(F)(F)F)C(F)(F)F | > 100 | > 100 | > 100 | > 100 | > 100 | > 100 | > 100 | > 100 | > 100 | > 100 | > 100 | > 100
24 | O=C1OC(c2ccccc2)=N/C1=C\c1ccc([N+](=O)[O-])cc1 | > 100 | 68.3 | > 100 | 93.9 | > 100 | > 100 | > 100 | > 100 | > 100 | 18.9 | > 100 | 79.6
25 | CC1(C)[C@@H](Cn2cc(I)c(=O)[nH]c2=O)CC[C@@]1(C)CO | > 100 | > 100 |  | > 100 | > 100 | > 100 | > 100 | > 100 | > 100 | > 100 | > 100 | 
26 | C[N+]12C=CC=C1C(N1CCCC1)c1scc(-c3ccc(Br)cc3)c12 (configuration not stated) | 98.2 | 58.9 | > 100 | 61.8 | 25.9 | 39.1 | 16.1 | 9.6 | > 66.4 | > 100 | > 100 | 35.5
27 | Nc1ncc2c(n1)-c1ccccc1OC2N1CCCCC1 (configuration not stated) | > 100 | > 100 | > 100 | > 100 | > 100 | > 100 | > 100 | > 100 | > 100 | > 100 | > 100 | > 100
28 | N=c1oc2ccccc2cc1C(=O)NC12CC3CC(CC(C3)C1)C2 | > 100 | 17.2 | > 100 | 22.7 | 52.4 | 37.5 | 69.9 | > 100 | > 100 | > 90.3 | 71.1 | 11.4
29 | Cc1ccc(Nc2nc(NNC(=O)Cc3ccccc3)nc(NNC(=O)c3ccncc3)n2)cc1 | > 10 | > 10 | > 10 | > 10 | > 10 |  | > 10 | > 10 | > 10 |  |  | > 10
30 | O=C1NC2(CCN(CCc3ccccc3)CC2)Oc2ccccc21 | > 100 | > 100 | > 100 | > 100 | > 100 | > 100 | 27.8 | 50.7 | 49.9 | > 100 | > 100 | > 100
31 | COc1ccc(C2c3cc4c(cc3OC3(OC)COC(=O)C23)OCO4)c(OC)c1 (configuration not stated) | 5.24 | > 46.8 | 15.1 | > 100 | 40 | > 63 | > 90.1 | 27.1 | 25.8 | > 100 | > 90.7 | > 100
32 | COc1cc(S(=O)(=O)Nc2ccc(-c3csc(N4C(=O)CSC4c4cccc(Oc5ccccc5)c4)n3)cc2)ccc1Cl (configuration not stated) | 75.8 | > 100 | > 100 | 33.9 | > 100 | > 100 | > 100 | > 100 | > 100 | > 100 | > 100 | > 100
33 | CC(C)C(NC(=O)Oc1ccccc1)C(=O)NC1c2c(Br)sc(Br)c2C(=O)C1O (configuration not stated) | > 25 | 15.6 | 7.71 | 16.7 | > 25 | 8.21 | 8.36 | > 25 | 11.4 | > 25 | 7.34 | 
34 | CC(C)=C[C@H]1C[C@H](C)[C@H]2CC[C@H](C)c3c2c1c(C)c1ncoc31 | 34.2 | 39.6 |  | 37.9 | 34.5 | 28.7 | 28.6 | 45 | 29.3 | 33.2 | 33.6 | 40.9
35 | O=C1c2ccccc2-n2nnnc2C2CSCN12 (configuration not stated) | > 100 | > 100 | > 100 | > 100 | > 100 | > 100 | > 100 | > 100 | > 100 | > 100 | > 100 | > 100
36 | C=C1C(=O)O[C@@H]2/C=C(C)/C=C\[C@@H]3O[C@@]3(C)C[C@@H](O)C12 (some centres not stated) | > 100 | 4.93 | 26.2 | 23.6 | 31.8 | 29.8 | 29 | > 100 | 49.2 | 29.7 | 20.6 | 
37 | CCOC(=O)c1nnn(CCCCO)c1C(=O)OCC | > 100 | > 100 | > 100 | > 100 | > 100 |  | > 100 | > 100 |  | > 100 | > 100 | > 100
38 | COc1ccc(C(SCCO)(c2ccccc2)c2ccc(OC)cc2)cc1 | 20.3 | 40.7 | 29.1 | 34.1 | 21.5 | 33.9 | 21.1 | > 44.1 | 23.1 | 28.6 | 22.2 | 
39 | O=C(C(=O)n1ccc2ccccc21)n1ccc2ccccc21 | > 100 | > 100 | > 100 | > 100 |  | > 100 | > 100 | > 100 |  | > 100 | > 100 | > 100
